Results from US12201693B2, “Amanitin conjugates” (Heidelberg Pharma Research GmbH, priority 2016, dated 2025).
*1 amine or outer side, *2 acyl side, *3 side chain or, on linkers, in order; H or OH if unused. Where a SMILES comes first, the peptide text is derived from it. Bridges are numbered along the chain shown (N, C = ends). [ ]: non-standard residue; d: D form. The star is where a group is joined. ξ: configuration not given here. X2 = CC(C)C(NC(=O)CCN1C(=O)C=CC1=O)C(=O)N[C@@H](C)C(=O)Nc1ccc(CN*)cc1; ξTrp(2-yl) = O=C(C(Cc1c([*:3])[nH]c2ccccc12)N[*:1])[*:2]; Ile(4R-OH,5-OH) = C[C@H]([C@H](N)C(=O)O)[C@@H](O)CO; X3 = CC([C@H](N[*:1])C(=O)[*:2])[C@@H](O)CO; X1 = O=C([C@@H]1CC(O)CN1[*:1])[*:2]; ξD = NC(CC(=O)O)C(=O)O; ξC = NC(CS)C(=O)O

Columns and labels:
RNA-polymerase II = RNA-polymerase II (Homo sapiens, UniProt P24928); details: complex between amanitin and RNA-polymerase II; cited from earlier work
[1] = reactivity with cysteine in PBS buffer, RP-HPLC C18; assay type: physicochemical; details: 1 mg/mL compound, 10 mg/mL cysteine in PBS, pH 7.4 at 37° C. after 24 h, 48 h and 6 d
Procedure: 1 mg/ml α-amanitin 10 mg/mL cysteine in PBS, pH 7.4 at 37° C. after 24 h, 48 h and 6 d RP-HPLC C18.
1 mg/mL β-amanitin 10 mg/mL cysteine in PBS, pH 7.4 at 37° C. after 24 h, 48 h and 6 d RP-HPLC […].
1 mg/mL amanin 10 mg/mL cysteine in PBS, pH 7.4 at 37° C. after 24 h, 48 h and 6 d RP-HPLC […].
1 mg/mL HDP 30.2105, 10 mg/mL cysteine in PBS, pH 7.4 at 37° C. after 24 h, 48 h and 6 d RP-HPLC C18; * impurity.

[2] = Western-Blot analysis of T-D265C conjugates after incubation in human plasma, mouse plasma and PBS; assay type: in vitro ADME; details: conjugated to T-D265C antibody; 37° C. in human plasma, mouse plasma and PBS for 0, 4 and 10 days
Procedure: Western-Blot analysis of amatoxin derivatives HOP 30.1699, HDP 30.2060 and HDP 30.2115 conjugated to T-D265C antibody after incubation at 37° C. in human plasma, mouse plasma an phosphate buffered saline (PBS) for 0, 4 and 10 days. Detection was done with a polyclonal anti-amanitin antibody from rabbit and an anti-rabbit antibody conjugated to horseradish peroxidase.

SKBR-3 cells = test: cytotoxicity assay on SKBR-3 cells after plasma/PBS stressing of ADCs; assay type: cell-based; details: conjugated to T-D265C, SKBR-3 cells 96 h
Procedure: Test items were incubated in human plasma at 37° C. for 0 an 4 days. Cytotoxicity assay were performed on SKBR-3 cells for 96 h.
Test items were incubated in mouse plasma at 37° C. for 0 an 4 days. Cytotoxicity assay were performed on SKBR-3 cells for 96 h.
Test items were incubated in PBS at 37° C. for 0 an 4 days. Cytotoxicity assay were performed on SKBR-3 cells for 96 h. All ADCs show adequate stability to non-enzymatic environment.

Molecule	reactivity with cysteine [1]	also measured
amanitin		Kd (RNA-polymerase II): 3 nM
CC[C@H](C)[C@@H]1NC(=O)CNC(=O)C2Cc3c([nH]c4ccccc34)SCC(NC(=O)CNC1=O)C(=O)NC(CC(=O)O)C(=O)N1CC(O)C[C@H]1C(=O)N[C@@H](C(C)[C@@H](O)CO)C(=O)N2 (some centres unmarked) [HDP 30.2105] (cyclo(GIG[ξC][ξD][X1][X3][ξTrp(2-yl)]); thioether 4-8)	complete absence of reactivity	
α-Amanitin	strong reactivity	
CC[C@H](C)[C@@H]1NC(=O)CNC(=O)C2Cc3c([nH]c4ccccc34)SCC(NC(=O)CNC1=O)C(=O)N[C@@H](CC(=O)NCc1ccc(NC(=O)[C@H](C)NC(=O)C(NC(=O)CCN3C(=O)C=CC3=O)C(C)C)cc1)C(=O)N1CC(O)C[C@H]1C(=O)N[C@@H]([C@@H](C)[C@@H](O)CO)C(=O)N2 (stereo partly drawn) [HDP 30.2115] (cyclo(D(X2)[X1][Ile(4R-OH,5-OH)][ξTrp(2-yl)]GIG[ξC]); thioether 4-8)		cross-links and loss of the amatoxin moiety (stability) [2]: high stability and significantly reduced cross-links; cytotoxicity after plasma stressing (SKBR-3 cells; human plasma at 37° C. for 0 and 4 days): still picomolar activity; cytotoxicity after plasma stressing (SKBR-3 cells; mouse plasma at 37° C. for 0 and 4 days): remains almost unchanged
β-Amanitin	strong reactivity	
amanin	reduced reactivity	
